Data as given in PMC7370100, “In Vitro Assessment of the Genotoxic Hazard of Novel Hydroxamic Acid- and Benzamide-Type Histone Deacetylase Inhibitors (HDACi)” (International Journal of Molecular Sciences, 2020).

Key:
[1] = system: SH-SY5Y neuroblastoma cells; experiment: Alamar blue assay (cell viability), SH-SY5Y cells; type: cell-based, human
Procedure: (§1) V79 hamster lung cells, which are recommended in the OECD toxicology guidelines for hazard identification (i.e., cytotoxicity and genotoxicity) of chemicals, were purchased from the German Collection of Microorganisms and Cell Cultures (DSMZ, Braunschweig, Germany). They were cultured in Dulbecco´s modified Eagle medium and Ham´s F12 medium (DMEM/F12) (PromoCell, Heidelberg, Germany) containing 10% fetal calf serum at 37 °C in a humidified atmosphere containing 5% CO2. VC8 hamster cells were defective in DNA double-strand break (DSB) repair by homologous recombination (HR) due to the lack of functional BRCA2 protein [69, 70]. VC8 cells were provided by B. Kaina (Institute of Toxicology, Mainz, Germany). Nucleotide excision repair defective XPA and CSB deficient cells were also provided by B. Kaina and were described before. They were grown in DMEM containing 10% fetal calf serum. Human neuroblastoma cells (IMR-32 and SH-SY5Y) were purchased from the German Collection of Microorganisms and Cell Cultures (DSMZ, Braunschweig, Germany) and were used as a model of malignant cells. They were grown in DMEM or RPMI (Roswell park memorial institute) medium, respectively, containing 10% fetal calf serum. If not stated otherwise, HDACi were added to the exponentially growing cells and analyses were performed 6 h to 72 h later.
(§2) Cell viability was determined using the Alamar blue assay, which reflected the mitochondrial activity. Viable cells were characterized by an effective mitochondrial metabolization of the non-fluorescent dye resazurin (Sigma, Steinheim, Germany) to fluorescent resorufin (excitation: 535 nm, emission: 590 nm). Relative viability in the untreated control was set to 100%. In addition, the Neutral red assay, which measures the integrity of lysosomal membranes, was used to monitor cytotoxicity. To this end, cells were incubated with the Neutral red solution (0.01%) in an atmosphere containing 5% CO2 for 90 min before they were fixed (1% formaldehyde/1% CaCl2). Afterwards, the Neutral red that was taken up by the cells was extracted (50% ethanol/1% of acetic acid, 15 min at room temperature (RT)) and absorbance (540 nm) was measured. If not stated otherwise, data are shown as the mean ± standard deviation (SD) of two to three independent experiments each performed in quadruplicate. Approximate IC50 (~IC50, see Supplementary Table S1) were calculated from the corresponding dose-response curves.

V79 cells [2] = experiment: Nuclear γH2AX foci and pan-staining (immunocytochemistry); type: cell-based, hamster; settings: for > 5 < 30 Foci [%] / Pan-Stained [%] / ≤ 5 Foci [%] (cells with γH2AX foci) / ≥ 30 Foci [%] / formation of nuclear γH2AX foci: 24 h; for > 5 < 30 Foci [%] / Pan-Stained [%] / ≤ 5 Foci [%] (cells with γH2AX foci) / ≥ 30 Foci [%] / gH2AX Foci / gH2AX Pan-Stain: V79; for gH2AX Foci / gH2AX Pan-Stain: summary grade; for formation of nuclear γH2AX foci: V79, in words; for gH2AX Foci: key: −: no effect; 0: weak effect; +: moderate effect; ++: strong effect; +++: very strong effect as compared to untreated controls; for gH2AX Pan-Stain: key: −: no effect; 0: weak effect; +: moderate effect; ++: strong effect; +++: very strong effect as compared to untreated controls
Procedure: The frequency of nuclear foci formed by S139 phosphorylated H2AX (γH2AX foci), which is a surrogate marker of DNA damage, especially DNA double-strand breaks (DSBs), was assayed by immunocytochemistry-based analysis. […] The appearance of nuclear 53BP1 foci, which is another marker of DSBs, was also determined by immunocytochemistry. Cells were fixed with 4% formaldehyde in phosphate-buffered saline (PBS) (MERCK, Darmstadt, Germany) (15 min, RT) followed by incubation with ice-cold methanol (≥20 min, −20 °C). After blocking (1 h, RT, blocking solution: 5% BSA (MERCK, Darmstadt, Germany) in PBS/0.3% Triton X-100 (Sigma, Steinheim, Germany)), incubation with γH2AX antibody and 53BP1 antibody was performed (1:500, overnight, 4 °C). After incubation with the secondary fluorescence-labeled antibody (1:500, 1 h, RT, in the dark), cells were mounted in Vectashield (Vector Laboratories (Burlingame, CA, USA)) containing DAPI. The number of nuclear γH2AX and 53BP1 foci was scored (Olympus BX43 fluorescence microscope). Only nuclei with distinct foci were evaluated and γH2AX pan-stained nuclei were excluded from the foci analyses. Data are shown as the mean ± SEM of three independent experiments with ≥50 nuclei analyzed per experimental condition.

V79 cells [3] = experiment: Micronucleus assay; settings: for micronucleus assay outcome at 50 μM (printed in Figure 2A) / Micronucl. Assay: V79; for Micronucl. Assay: summary grade
Procedure: We analyzed the frequency of micronuclei in binucleated cells, as described [86]. Briefly, logarithmically growing cells were treated with cytochalasin B (3 µg/m) for 24 h. After fixation with formaldehyde (3.7% in PBS, 20 min, RT) and washing with PBS, cells were permeabilized using precooled methanol (20 min, −20 °C.) After washing with PBS and rinsing the cell layer with PBS containing Triton X100 (PBST; 0.3% Triton X100 in PBS), DNA was stained by DAPI (4´,6-diamino-2-phenylindole) and the number of micronuclei was evaluated by fluorescence microscopy. Data shown are the mean ± SEM of three independent experiments with ≥1000 binucleated cells evaluated per experimental condition.

[4] = system: VC8 hamster cells (BRCA1/2 defect); experiment: Viability of DSB repair defective VC8 versus wild-type V79 cells (Alamar blue); type: cell-based; settings: summary grade, V79 versus VC8; note: key: −: no effect; 0: weak effect; +: moderate effect; ++: strong effect; +++: very strong effect as compared to untreated controls
Procedure: as §1, §2

[5] = system: SH-SY5Y neuroblastoma cells; experiment: Neutral red assay (cytotoxicity), SH-SY5Y cells; type: cell-based, human
Procedure: as §1, §2

[6] = system: IMR-32 neuroblastoma cells; experiment: Neutral red assay (cytotoxicity), IMR-32 cells; type: cell-based, human
Procedure: as §1, §2

V79 hamster lung cells [7] = experiment: Alamar blue assay (cell viability), V79 cells; type: cell-based; settings: for less cytotoxic to non-malignant V79 cells than to malignant neuroblastoma cells (IC50 based): selection criterion, IC50 of Table S1
Procedure: as §1, §2

V79 hamster lung cells [8] = experiment: Neutral red assay (cytotoxicity), V79 cells; type: cell-based
Procedure: as §1, §2

[9] = system: IMR-32 neuroblastoma cells; experiment: Alamar blue assay (cell viability), IMR-32 cells; type: cell-based, human
Procedure: as §1, §2

[10] = Homo sapiens, SH-SY5Y, 24 h, approximate IC50, read-out: IC50 - 24 h Treatment, SH-SY5Y
[11] = Homo sapiens, SH-SY5Y, 72 h, approximate IC50, read-out: IC50 - 72 h Treatment, SH-SY5Y
[12] = Homo sapiens, IMR-32, 24 h, approximate IC50, read-out: IC50 - 24 h Treatment, IMR-32
[13] = Homo sapiens, IMR-32, 72 h, approximate IC50, read-out: IC50 - 72 h Treatment, IMR-32
[14] = V79, 24 h after drug treatment (values match Alamar blue data of Table S1), read-out: Viability (IC50) 24 h
[15] = V79, 72 h after drug treatment (values match Alamar blue data of Table S1), read-out: Viability (IC50) 72 h
[16] = 24 h, approximate IC50, read-out: IC50 - 24 h Treatment, SH-SY5Y
[17] = 72 h, approximate IC50, read-out: IC50 - 72 h Treatment, SH-SY5Y
[18] = 24 h, approximate IC50, read-out: IC50 - 24 h Treatment, IMR-32
[19] = 72 h, approximate IC50, read-out: IC50 - 72 h Treatment, IMR-32
[20] = 24 h, approximate IC50, read-out: IC50 - 24 h Treatment, V79
[21] = 72 h, approximate IC50, read-out: IC50 - 72 h Treatment, V79

IC50 [1, 10] [µM] | > 5 < 30 Foci [%] (V79 cells [2]; 2 µM) | Pan-Stained [%] (V79 cells [2]; 2 µM) | ≤ 5 Foci [%] (cells with γH2AX foci) (V79 cells [2]; 2 µM) | ≥ 30 Foci [%] (V79 cells [2]; 2 µM) | > 5 < 30 Foci [%] (V79 cells [2]; 10 µM) | Pan-Stained [%] (V79 cells [2]; 10 µM) | ≤ 5 Foci [%] (cells with γH2AX foci) (V79 cells [2]; 10 µM) | ≥ 30 Foci [%] (V79 cells [2]; 10 µM) | > 5 < 30 Foci [%] (V79 cells [2]; 50 µM) | Pan-Stained [%] (V79 cells [2]; 50 µM) | ≤ 5 Foci [%] (cells with γH2AX foci) (V79 cells [2]; 50 µM) | ≥ 30 Foci [%] (V79 cells [2]; 50 µM) | gH2AX Foci (V79 cells [2]) | gH2AX Pan-Stain (V79 cells [2]) | formation of nuclear γH2AX foci (V79 cells [2]) | Structure (SMILES) | Micronucl. Assay (V79 cells [3]) | DSB Repair def. Cells [4] | IC50 (V79 hamster lung cells [7]; [14]) [µM] | IC50 (V79 hamster lung cells [7]; [15]) [µM] | further results
33 | 54.7 | 0.0 | 39.3 | 6.0 | 18.5 | 3.2 | 75.9 | 2.4 | 34.2 | 26.7 | 23.6 | 15.6 | + | ++ |  | O=C(CCCCCCC(=O)Nc1ccccc1)NO [Vorinostat, vorinostat, reference compound] | + | ++ |  |  | micronucleus assay outcome at 50 μM (printed in Figure 2A) (V79 cells [3]): Cytotoxic
> 50 |  |  |  |  | 43.6 | 0.4 | 45.2 | 10.8 | 39.4 | 3.2 | 45.3 | 12.2 | + | + | relatively low number of γH2AX foci | Nc1ccccc1NC(=O)c1ccc(CNC(=O)OCc2cccnc2)cc1 [Entinostat, entinostat, reference compound] |  | + | > 50 | 7 | IC50 [5, 10]: > 50 µM; IC50 [5, 11]: 9 µM; IC50 [6, 12]: > 50 µM; IC50 [6, 13]: 3 µM; IC50 [1, 11]: 8 µM; > 5 < 30 Foci [%] (V79 cells [2]; 100 µM): 47.2%; Pan-Stained [%] (V79 cells [2]; 100 µM): 4.6%; ≤ 5 Foci [%] (cells with γH2AX foci) (V79 cells [2]; 100 µM): 41.7%; ≥ 30 Foci [%] (V79 cells [2]; 100 µM): 6.5%; IC50 (V79 hamster lung cells [8]; V79, 24 h, approximate IC50, read-out: IC50 - 24 h Treatment, V79): > 50 µM; IC50 (V79 hamster lung cells [8]; V79, 72 h, approximate IC50, read-out: IC50 - 72 h Treatment, V79): 2 µM; IC50 [9, 12]: 50 µM; IC50 [9, 13]: 2 µM
 |  |  |  |  | 49.9 | 0.0 | 49.6 | 0.6 | 41.5 | 0.0 | 58.6 | 0.0 | + | 0 | relatively low number of γH2AX foci | Nc1ccc(F)cc1NC(=O)c1ccc(CONC(=O)C=Cc2cccnc2)cc1 [MPK77] | + | + | > 50 | 50 | IC50 [5, 16]: > 50 µM; IC50 [5, 17]: 23 µM; IC50 [6, 18]: 9 µM; IC50 [6, 19]: 3 µM; less cytotoxic to non-malignant V79 cells than to malignant neuroblastoma cells (IC50 based) (V79 hamster lung cells [7]): ≥ 10 fold; IC50 [1, 16]: 33 µM; IC50 [1, 17]: 17 µM; > 5 < 30 Foci [%] (V79 cells [2]; 100 µM): 47.9%; Pan-Stained [%] (V79 cells [2]; 100 µM): 10.2%; ≤ 5 Foci [%] (cells with γH2AX foci) (V79 cells [2]; 100 µM): 35.5%; ≥ 30 Foci [%] (V79 cells [2]; 100 µM): 6.5%; frequency of micronuclei (V79 cells [3]; 24 h, V79, in words): slight but significant increase in the frequency of micronuclei; IC50 (V79 hamster lung cells [8]; [20]): > 50 µM; IC50 (V79 hamster lung cells [8]; [21]): 35 µM; IC50 [9, 18]: 3 µM; IC50 [9, 19]: 2 µM

Structure (SMILES) | IC50 [1, 10] [µM] | > 5 < 30 Foci [%] (V79 cells [2]; 2 µM) | Pan-Stained [%] (V79 cells [2]; 2 µM) | ≤ 5 Foci [%] (cells with γH2AX foci) (V79 cells [2]; 2 µM) | ≥ 30 Foci [%] (V79 cells [2]; 2 µM) | > 5 < 30 Foci [%] (V79 cells [2]; 10 µM) | Pan-Stained [%] (V79 cells [2]; 10 µM) | ≤ 5 Foci [%] (cells with γH2AX foci) (V79 cells [2]; 10 µM) | ≥ 30 Foci [%] (V79 cells [2]; 10 µM) | > 5 < 30 Foci [%] (V79 cells [2]; 50 µM) | Pan-Stained [%] (V79 cells [2]; 50 µM) | ≤ 5 Foci [%] (cells with γH2AX foci) (V79 cells [2]; 50 µM) | ≥ 30 Foci [%] (V79 cells [2]; 50 µM) | gH2AX Foci (V79 cells [2]) | gH2AX Pan-Stain (V79 cells [2]) | formation of nuclear γH2AX foci (V79 cells [2]) | Micronucl. Assay (V79 cells [3]) | DSB Repair def. Cells [4] | IC50 (V79 hamster lung cells [7]; [14]) [µM] | IC50 (V79 hamster lung cells [7]; [15]) [µM] | further results
CN(C)c1ccc(C(=O)N(CC(=O)NCc2ccccc2)Cc2ccc(C(=O)NO)cc2)cc1 [DDK137] |  | 38.5 | 0.0 | 60.8 | 0.7 | 40.1 | 0.0 | 56.4 | 3.5 | 36.8 | 14.1 | 31.3 | 17.8 | + | + | stimulate the formation of γH2AX foci only at a high dose of 50 µM | + | + | 33 | 11 | IC50 [5, 16]: > 50 µM; IC50 [5, 17]: 1 µM; IC50 [6, 18]: 10 µM; IC50 [6, 19]: 0.3 µM; less cytotoxic to non-malignant V79 cells than to malignant neuroblastoma cells (IC50 based) (V79 hamster lung cells [7]): ≥ 10 fold; IC50 [1, 16]: 50 µM; IC50 [1, 17]: 0.9 µM; micronucleus assay outcome at 50 μM (printed in Figure 2A) (V79 cells [3]): Cytotoxic; IC50 (V79 hamster lung cells [8]; [20]): 36 µM; IC50 (V79 hamster lung cells [8]; [21]): 17 µM; IC50 [9, 18]: 0.6 µM; IC50 [9, 19]: 0.2 µM
